Measured values: ChEMBL document CHEMBL5131569, “SAGE-718: A First-in-Class N-Methyl-d-Aspartate Receptor Positive Allosteric Modulator for the Potential Treatment of Cognitive Impairment” (J Med Chem, 2022)
In brackets after ≈: the same amount, converted by molar mass.

Assays:
[1] = target: T1, Glutamate NMDA receptor; GRIN1/GRIN2A (Homo sapiens, UniProt Q05586+Q12879); experiment: Positive allosteric modulation of recombinant human GluN1/GluN2A receptor stably expressed in HEK293 cells assessed as increase in glycine/L-glutamate-induced channel current at -70 mV holding potential by whole cell patch clamp method relative to control; format: cell-based; details: filed as positive allosteric modulator
[2] = target: T2, Glutamate NMDA receptor; GRIN1/GRIN2B (Homo sapiens, UniProt Q05586+Q13224); experiment: Positive allosteric modulation of recombinant human GluN1/GluN2B receptor stably expressed in HEK293 cells assessed as increase in glycine/L-glutamate-induced channel current at -70 mV holding potential by whole cell patch clamp method relative to control; format: cell-based; details: filed as positive allosteric modulator
[3] = target: T2, Glutamate NMDA receptor; GRIN1/GRIN2B; experiment: Positive allosteric modulation of recombinant human GluN1/GluN2B receptor stably expressed in HEK293 cells assessed as increase in glycine/L-glutamate-induced channel current at -70 mV holding potential by whole cell patch clamp method; format: cell-based
[4] = target: T1, Glutamate NMDA receptor; GRIN1/GRIN2A; experiment: Positive allosteric modulation of recombinant human GluN1/GluN2A receptor stably expressed in HEK293 cells assessed as increase in glycine/L-glutamate-induced channel current at -70 mV holding potential by whole cell patch clamp method; format: cell-based
[5] = Half life in po dosed rat; format: ADME, organism-based; details: in vivo
[6] = Clearance in po dosed rat; format: ADME, organism-based; details: in vivo
[7] = Oral bioavailability in rat; format: ADME, organism-based; details: in vivo
[8] = Metabolic stability in human liver microsomes assessed as intrinsic clearance at 10 uM preincubated for 5 mins followed by NADPH addition and measured upto 65 mins by LC-MS/MS analysis; format: ADME, Microsome; details: time < 70 min, read-out: CLH
[9] = Clearance in Sprague-Dawley rat by LC-MS/MS analysis; format: ADME; details: in vivo
[10] = Oral bioavailability in Beagle dog by LC-MS/MS analysis; format: ADME, organism-based, Canis lupus familiaris; details: in vivo
[11] = Clearance in Beagle dog by LC-MS/MS analysis; format: ADME, Canis lupus familiaris; details: in vivo
[12] = Oral bioavailability in Sprague-Dawley rat by LC-MS/MS analysis; format: ADME, organism-based; details: in vivo
[13] = Oral bioavailability in CD-1 mouse by LC-MS/MS analysis; format: ADME, organism-based; details: in vivo
[14] = Metabolic stability in rat liver microsomes assessed as intrinsic clearance at 10 uM preincubated for 5 mins followed by NADPH addition and measured upto 65 mins by LC-MS/MS analysis; format: ADME, Microsome; details: time < 70 min, read-out: CLH
[15] = Clearance in CD-1 mouse by LC-MS/MS analysis; format: ADME; details: in vivo
[16] = Ratio of drug concentration in ip dosed CD-1 mouse brain to plasma after 1 hr by LC-MS/MS analysis; format: ADME, organism-based; details: brain and plasma
[17] = Metabolic stability in dog liver microsomes assessed as intrinsic clearance at 10 uM preincubated for 5 mins followed by NADPH addition and measured upto 65 mins by LC-MS/MS analysis; format: ADME, Canis lupus familiaris, Microsome; details: time < 70 min, read-out: CLH
[18] = Metabolic stability in mouse liver microsomes assessed as intrinsic clearance at 10 uM preincubated for 5 mins followed by NADPH addition and measured upto 65 mins by LC-MS/MS analysis; format: ADME, Microsome; details: time < 70 min, read-out: CLH
[19] = Lipophilicity, logD of compound in MeOH at 20 uM by HPLC analysis; format: physicochemical
[20] = Aqueous solubility of compound in PBS incubated for 1 hr under shaking condition by HPLC-MS/MS analysis; format: physicochemical

## COCC[C@@](C)(O)CC[C@@H](C)[C@H]1CC[C@H]2[C@@H]3CC=C4C[C@@](C)(O)CC[C@]4(C)[C@H]3CC[C@]12C
[1]
  Emax: 87%
[2]
  Emax: 130%
[3]
  EC50: 590 nM
[4]
  EC50: 220 nM

## C[C@H](CC[C@](C)(O)CCO)[C@H]1CC[C@H]2[C@@H]3CC=C4C[C@@](C)(O)CC[C@]4(C)[C@H]3CC[C@]12C
[3]
  EC50: > 10000 nM
[4]
  EC50: > 10000 nM

## CCCC[C@](C)(O)CC[C@@H](C)[C@H]1CC[C@H]2[C@@H]3CC=C4C[C@@](C)(O)CC[C@]4(C)[C@H]3CC[C@]12C
[1]
  Emax: 170%
[2]
  Emax: 170%
[3]
  EC50: 450 nM
[4]
  EC50: 100 nM

## C[C@H](CC[C@](C)(O)C(F)(F)F)[C@H]1CC[C@H]2[C@@H]3CC=C4C[C@](C)(O)CC[C@]4(C)[C@H]3CC[C@]12C
[3]
  EC50: 1500 nM
[4]
  EC50: 2200 nM

## C[C@H](CC[C@@](C)(O)C(F)(F)F)[C@H]1CC[C@H]2[C@@H]3CC=C4C[C@@](C)(O)CC[C@]4(C)[C@H]3CC[C@]12C
[3]
  EC50: 180 nM
[4]
  EC50: 310 nM

## C[C@H](CC[C@](C)(O)C(F)(F)F)[C@H]1CC[C@H]2[C@@H]3CC[C@H]4C[C@@](C)(O)CC[C@]4(C)[C@H]3CC[C@]12C
[1]
  Emax: 150%
[2]
  Emax: 100%
[3]
  EC50: 110 nM
[4]
  EC50: 180 nM

## C#C[C@](C)(O)CC[C@@H](C)[C@H]1CC[C@H]2[C@@H]3CC=C4C[C@@](C)(O)CC[C@]4(C)[C@H]3CC[C@]12C
[3]
  EC50: > 10000 nM
[4]
  EC50: > 10000 nM

## C[C@H](CC[C@@](C)(O)C1CC1)[C@H]1CC[C@H]2[C@@H]3CC=C4C[C@@](C)(O)CC[C@]4(C)[C@H]3CC[C@]12C
[1]
  Emax: 180%
[2]
  Emax: 140%
[3]
  EC50: 49 nM
[4]
  EC50: 74 nM

## C[C@H](CC[C@@H](O)C(F)(F)F)[C@H]1CC[C@H]2[C@@H]3CC=C4C[C@@](C)(O)CC[C@]4(C)[C@H]3CC[C@]12C
[5]
  half-life: 5.75 h
[6]
  CL/F: 33.3 mL/min/kg
[7]
  bioavailability: 18%

## CC(C)[C@@H](O)CC[C@@H](C)[C@H]1CC[C@H]2[C@@H]3CC=C4C[C@@H](O)CC[C@]4(C)[C@H]3CC[C@]12C
[5]
  half-life: < 0.6 h
[6]
  CL/F: 91.7 mL/min/kg
[7]
  bioavailability: < 10%

## CC[C@@](C)(O)CC[C@@H](C)[C@H]1CC[C@H]2[C@@H]3CC=C4C[C@@](C)(O)CC[C@]4(C)[C@H]3CC[C@]12C
[1]
  Emax: 280%
[2]
  Emax: 190%
[3]
  EC50: 300 nM
[4]
  EC50: 150 nM

## C[C@H](CCC(C)(C)O)[C@H]1CC[C@H]2[C@@H]3CC=C4C[C@@](C)(O)CC[C@]4(C)[C@H]3CC[C@]12C
[5]
  half-life: 1.7 h
[6]
  CL/F: 18.3 mL/min/kg
[8]
  microsomal CLint at 10 µM: 13 µL/min/mg
[9]
  clearance: 30 mL/min/kg
[10]
  bioavailability: 17%
[11]
  clearance: 3.33 mL/min/kg
[12]
  bioavailability: 23%
[13]
  bioavailability: 53%
[14]
  microsomal CLint at 10 µM: 35 µL/min/mg
[15]
  clearance: 18.3 mL/min/kg
[16]
  Kp at 1 h: 0.6
[17]
  microsomal CLint at 10 µM: 16 µL/min/mg
[18]
  microsomal CLint at 10 µM: 42 µL/min/mg
[19]
  logD at 20 µM: 5
[20]
  solubility at 1 h: 0.62 µM (≈ 0.25 µg/mL)

## C[C@H](CC[C@](C)(O)C(F)(F)F)[C@H]1CC[C@H]2[C@@H]3CC[C@@H]4C[C@@](C)(O)CC[C@]4(C)[C@H]3CC[C@]12C
[3]
  EC50: > 10000 nM
[4]
  EC50: > 10000 nM

## C[C@H](CC[C@](C)(O)C1CC1)[C@H]1CC[C@H]2[C@@H]3CC=C4C[C@@](C)(O)CC[C@]4(C)[C@H]3CC[C@]12C
[1]
  Emax: 130%
[2]
  Emax: 130%
[3]
  EC50: 60 nM
[4]
  EC50: 420 nM

## C[C@H](CC[C@](C)(O)C(F)(F)F)[C@H]1CC[C@H]2[C@@H]3CC=C4C[C@@](C)(O)CC[C@@H]4[C@H]3CC[C@]12C
[1]
  Emax: 50%
[2]
  Emax: 52%
[3]
  EC50: 250 nM
[4]
  EC50: 93 nM

## CC[C@](C)(O)CC[C@@H](C)[C@H]1CC[C@H]2[C@@H]3CC=C4C[C@@](C)(O)CC[C@]4(C)[C@H]3CC[C@]12C
[1]
  Emax: 170%
[2]
  Emax: 120%
[8]
  microsomal CLint at 10 µM: 0.14 µL/min/mg
[9]
  clearance: 36.7 mL/min/kg
[3]
  EC50: 100 nM
[12]
  bioavailability: 89%
[14]
  microsomal CLint at 10 µM: 2.7 µL/min/mg
[16]
  Kp at 1 h: 0.2
[18]
  microsomal CLint at 10 µM: 8.4 µL/min/mg
[19]
  logD at 20 µM: 6.5
[4]
  EC50: 55 nM

## CC(C)[C@](C)(O)CC[C@@H](C)[C@H]1CC[C@H]2[C@@H]3CC=C4C[C@@](C)(O)CC[C@]4(C)[C@H]3CC[C@]12C
[1]
  Emax: 170%
[2]
  Emax: 150%
[3]
  EC50: 81 nM
[4]
  EC50: 120 nM

## C[C@H](CC[C@@](C)(O)CCO)[C@H]1CC[C@H]2[C@@H]3CC=C4C[C@@](C)(O)CC[C@]4(C)[C@H]3CC[C@]12C
[3]
  EC50: > 10000 nM
[4]
  EC50: > 10000 nM

## CCCC[C@@](C)(O)CC[C@@H](C)[C@H]1CC[C@H]2[C@@H]3CC=C4C[C@@](C)(O)CC[C@]4(C)[C@H]3CC[C@]12C
[1]
  Emax: 190%
[2]
  Emax: 170%
[3]
  EC50: 190 nM
[4]
  EC50: 160 nM

## CC(C)[C@@](C)(O)CC[C@@H](C)[C@H]1CC[C@H]2[C@@H]3CC=C4C[C@@](C)(O)CC[C@]4(C)[C@H]3CC[C@]12C
[1]
  Emax: 260%
[2]
  Emax: 220%
[8]
  microsomal CLint at 10 µM: 6.8 µL/min/mg
[9]
  clearance: 31.7 mL/min/kg
[3]
  EC50: 23 nM
[12]
  bioavailability: 116%
[16]
  Kp at 1 h: 0.2
[18]
  microsomal CLint at 10 µM: 31 µL/min/mg
[19]
  logD at 20 µM: 6.7
[4]
  EC50: 60 nM

## C#C[C@@](C)(O)CC[C@@H](C)[C@H]1CC[C@H]2[C@@H]3CC=C4C[C@@](C)(O)CC[C@]4(C)[C@H]3CC[C@]12C
[2]
  Emax: 56%
[3]
  EC50: 1100 nM
[4]
  EC50: > 10000 nM
